# Molecular target: Thymidylate synthase (Mus musculus, UniProt P07607)
# Experiment: Inhibition of mouse thymidylate synthase in mouse L1210 cells
# Sequence of Thymidylate synthase (P07607 whole entry): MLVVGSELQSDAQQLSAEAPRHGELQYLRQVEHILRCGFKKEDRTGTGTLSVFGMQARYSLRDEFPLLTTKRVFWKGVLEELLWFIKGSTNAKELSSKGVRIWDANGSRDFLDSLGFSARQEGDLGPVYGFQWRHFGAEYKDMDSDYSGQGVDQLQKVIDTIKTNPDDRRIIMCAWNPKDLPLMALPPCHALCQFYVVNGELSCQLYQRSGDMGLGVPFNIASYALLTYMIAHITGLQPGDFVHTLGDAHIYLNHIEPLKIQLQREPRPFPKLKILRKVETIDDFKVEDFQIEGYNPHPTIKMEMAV
row,SMILES,Ki
1,O=c1[nH]c(=O)n([C@H]2C[C@H](O)[C@@H](OP(=O)(O)O)O2)cc1CO,269 nM
2,CCCc1cn([C@H]2C[C@H](O)[C@@H](OP(=O)(O)O)O2)c(=O)[nH]c1=O,8.12 nM
3,O=c1[nH]c(=O)n([C@H]2C[C@H](O)[C@@H](OP(=O)(O)O)O2)cc1Br,660 nM
4,O=c1[nH]c(=O)n([C@H]2C[C@H](O)[C@@H](OP(=O)(O)O)O2)cc1O,309 nM
5,CCc1cn([C@H]2C[C@H](O)[C@@H](OP(=O)(O)O)O2)c(=O)[nH]c1=O,28.1 nM

# Further compounds by falling Ki, results first:
row,Ki,SMILES
1,138 nM,Cc1cn([C@H]2C[C@H](O)[C@@H](OP(=O)(O)O)O2)c(=O)[nH]c1=O
2,128 nM,O=c1[nH]c(=O)n([C@H]2C[C@H](O)[C@@H](OP(=O)(O)O)O2)cc1I
3,2.57 nM,O=c1[nH]c(=O)n([C@H]2C[C@H](O)[C@@H](OP(=O)(O)O)O2)cc1[N+](=O)[O-]

# From BindingDB's records for doi:10.1016/j.bmc.2007.01.021 (Polish Academy of Sciences, 2007)
